In US7129258B2, “Substituted benzoxazoles as estrogenic agents” (priority 2001, dated 2006):
Values joined by “and” are separate entries in the source; they are usually repeats but may differ in a detail not shown here. Equal values may be shown once. Marks after values point to notes of the source that are not given here.

Columns and labels:
[1] = test system: morphine-addicted rats; assay: Rat hot flush test procedure (tail skin temperature after naloxone); assay type: in vivo; settings: 0.3 mg/kg
Text: Rat Hot Flush Test Procedure
The effect of test compounds on hot flushes can be evaluated in a standard pharmacological test procedure which measures the ability of a test compound to blunt the increase in tail skin temperature which occurs as morphine-addicted rats are acutely withdrawn from the drug using naloxone [Merchenthaler, et al., Maturitas 30: 307–16 (1998)]. It can also be used to detect estrogen receptor antagonist activity by co-dosing test compound with the reference estrogen. The following data were obtained from representative compounds of the invention (Table (7))

[2] = test system: Sexually immature Sprague-Dawley rats (uterine weight); assay: Rat uterotrophic test procedure (Procedure 1); assay type: in vivo; settings: 0.06 μg/rat s.c., days 19-21, alone
[3] = test system: Lewis rats, Freund's Adjuvant-Complete induced arthritis; assay: Lewis rat adjuvant-induced arthritis, treatment test procedure; assay type: in vivo; settings: Treatment protocol, s.c. daily, begun Day 8 after adjuvant injection
[4] = test system: HLA-B27 rats; assay: HLA rat test procedure for inflammatory bowel disease (stool score 3 = diarrhea, 2 = soft stool, 1 = normal stool; colon histology); assay type: in vivo
[5] = test system: casein kinase II mRNA in mammary fat pad; assay: Mammary end bud test procedure (rat mammotrophic assay); assay type: in vivo
Description: Evaluation in the Mammary End Bud Test Procedure
Estrogens are required for full ductal elongation and branching of the mammary ducts, and the subsequent development of lobulo-alveolar end buds under the influence of progesterone. In this test procedure, the mammotrophic activity of selected compounds of the invention was evaluated according to the following standard pharmacological test procedure. Twenty-eight day old Sprague-Dawley rats (Taconic Farms) were ovariectomized and rested for nine days. Animals were housed under a 12-hour light/dark cycle, fed a casein-based Purina Laboratory Rodent Diet 5K96 (Purina, Richmond, Ind.) and allowed free access to water. […] The following results were obtained for representative compounds of the invention (Table (8)).

[6] = test system: Sexually immature 129 SvE mice (uterine weight); assay: Mouse uterotrophic test procedure (Procedure 2); assay type: in vivo; settings: 50 mg/kg s.c., days 22-25
[7] = test system: ovariectomized Sprague-Dawley rats (proximal tibia); assay: Bone mineral density in the ovariectomized rat; assay type: in vivo; settings: 5 weeks
[8] = test system: Lewis rats, Freund's Adjuvant-Complete induced arthritis; assay: Lewis rat adjuvant-induced arthritis, inhibition test procedure; assay type: in vivo; settings: Inhibition protocol, s.c. daily from Day 1
[9] = test system: human endometrial tissue implanted into ovariectomized athymic nude mice; assay: Endometriosis test procedure; assay type: in vivo, mouse; settings: 10 mg/kg oral daily
Description: Evaluation in an Endometriosis Standard Pharmacologic Test Procedure This procedure is slightly modified from a published method [Bruner-Tran. et al., Journal of Clinical Investigation 99: 2851–2857. (1997)]. […] Lesions are allowed to establish for at least 10 days, then oral daily dosing begins and continues for at least 15 days. It should be noted that all mice have visible lesions at the start of dosing. At necropsy the number of mice with lesions is determined as well as the lesions per mouse.

[10] = Study B colon histology, oral 4 weeks, 10 mg/kg days 1–14 then 20 mg/kg, mean ± SD
[11] = Study C colon histology, oral 7 weeks, 10 mg/kg days 1–18 then 20 mg/kg, mean ± SD
[12] = Study C colon histology, oral 7 weeks, 10 mg/kg days 1–24 then 20 mg/kg, mean ± SD

C#C[C@]1(O)CC[C@H]2[C@@H]3CCc4cc(O)ccc4[C@H]3CC[C@@]21C [17α-ethinyl, 17β-estradiol, 17α-ethinyl-17β-estradiol]
Temperature change 15 minutes after naloxone injection (mean ± SEM) [1]: 2.12 ± 1.14
mean uterine weight ± SEM [2]: 104.7 ± 5.4 mg and 85.5 ± 3.1 mg

C=Cc1cc(O)cc2nc(-c3ccc(O)cc3)oc12 [Example 27, 2-(4-Hydroxyphenyl)-7-vinyl-1,3-benzoxazol-5-ol]
Joint inflammation score (maximal score per day 12) ([3]; Day 8): 5.00
Joint inflammation score (maximal score per day 12) ([3]; Day 15): 2.00
Joint inflammation score (maximal score per day 12) ([3]; Day 16): 2.00
Joint inflammation score (maximal score per day 12) ([3]; Day 17): 1.50

C=Cc1cc(O)cc2nc(-c3ccc(O)cc3F)oc12 [Example 25, 2-(2-Fluoro-4-hydroxyphenyl)-7-vinyl-1,3-benzoxazol-5-ol]
Fibrosis (0–2) [4, 10]: 0.31 ± .13
Inflammation (0–3) [4, 10]: 1.50 ± 0.35
Lesion depth (0–2) [4, 10]: 0.44 ± 0.24
Ulceration (0–2) [4, 10]: 0.44 ± 0.24

C=C(Br)c1cc(O)cc2nc(-c3ccc(O)cc3F)oc12 [Example 32, 7-(1-Bromovinyl)-2-(2-fluoro-4-hydroxyphenyl)-1,3-benzoxazol-5-ol]
Joint inflammation score (maximal score per day 12) ([3]; Day 1): 11.33
Joint inflammation score (maximal score per day 12) ([3]; Day 2): 10.83
Joint inflammation score (maximal score per day 12) ([3]; Day 3): 9.33
Joint inflammation score (maximal score per day 12) ([3]; Day 4): 8.00
Joint inflammation score (maximal score per day 12) ([3]; Day 5): 5.83
Joint inflammation score (maximal score per day 12) ([3]; Day 6): 3.33
Joint inflammation score (maximal score per day 12) ([3]; Day 7): 3.00
Joint inflammation score (maximal score per day 12) ([3]; Day 8): 2.50
Joint inflammation score (maximal score per day 12) ([3]; Day 9): 2.50
Joint inflammation score (maximal score per day 12) ([3]; Day 10): 2.50
Joint inflammation score (maximal score per day 12) ([3]; Day 11): 2.50
Joint inflammation score (maximal score per day 12) ([3]; Day 12): 2.50
Joint inflammation score (maximal score per day 12) ([3]; Day 13): 2.50
Joint inflammation score (maximal score per day 12) ([3]; Day 14): 2.50
Joint inflammation score (maximal score per day 12) ([3]; Day 15): 2.00
Joint inflammation score (maximal score per day 12) ([3]; Day 16): 1.33
Joint inflammation score (maximal score per day 12) ([3]; Day 17): 1.00

C[C@]12CC[C@@H]3c4ccc(O)cc4CC[C@H]3[C@@H]1CC[C@@H]2O [17β-estradiol]
Casein kinase II mRNA/18 S rRNA (mean ± SEM) ([5]; 0.1 mg/kg s.c. + Progesterone (30 mg/kg)): 39.0 ± 5.36
mean uterine weight ± SEM [6]: 41.9 ± 2.9 mg and 40.0 ± 2.0 mg and 35.6 ± 4.4 mg and 40.5 ± 5.84 mg and 42.9 ± 4.8 mg and 41.7 ± 3.6 mg
Total Bone Mineral Density (mean ± SEM) ([7]; 2 μg/rat s.c.): 639.49 ± 14.47 mg/mL
Trabecular Bone Mineral Density (mean ± SEM) ([7]; 2 μg/rat s.c.): 453.28 ± 24.93 mg/mL

Oc1cc(Br)c2oc(-c3ccc(O)c(F)c3)nc2c1 [Example 21, 7-Bromo-2-(3-fluoro-4-hydroxyphenyl)-1,3-benzoxazol-5-ol]
Total Bone Mineral Density (mean ± SEM) ([7]; 10 mg/kg s.c.): 501.40 ± 11.97 mg/mL
Trabecular Bone Mineral Density (mean ± SEM) ([7]; 10 mg/kg s.c.): 312.34 ± 19.73 mg/mL
Fibrosis (0–2) [4, 11]: 0.56 ± 0.32
Lesion depth (0–2) [4, 11]: 0.75 ± 0.50
Ulceration (0–2) ([4]; Study C colon histology, oral 7 weeks, 10 mg/kg then 20 mg/kg, mean ± SD): 0.81 ± 0.47
scores on all disease parameters vs vehicle-treated rats (in words) ([4]; Study C, oral, 10 mg/kg then 20 mg/kg): not statistically significant, were lower

C=Cc1cc(O)cc2nc(-c3ccc(O)c(F)c3)oc12 [Example 24, 2-(3-Fluoro-4-hydroxyphenyl)-7-vinyl-1,3-benzoxazol-5-ol]
Casein kinase II mRNA/18 S rRNA (mean ± SEM) ([5]; 20 mg/kg s.c. + Progesterone (30 mg/kg)): 3.98 ± 0.79
Joint inflammation score (maximal score per day 12) ([3]; Day 4): 9.50
Joint inflammation score (maximal score per day 12) ([3]; Day 5): 8.00
Joint inflammation score (maximal score per day 12) ([3]; Day 6): 7.00
Joint inflammation score (maximal score per day 12) ([3]; Day 9): 3.50
Joint inflammation score (maximal score per day 12) ([3]; Day 17): 2.00
Joint inflammation score (maximal score per day 12) ([8]; Day 1): 0.00
Joint inflammation score (maximal score per day 12) ([8]; Day 2): 1.00
Joint inflammation score (maximal score per day 12) ([8]; Day 3): 4.50
Joint inflammation score (maximal score per day 12) ([8]; Day 15): 3.00
Joint inflammation score (maximal score per day 12) ([8]; Day 17): 1.50
lesions at necropsy compared with mice dosed with vehicle ([9]; evaluated three times): fewer lesions
lesions found per animal (mice with lesions) ([9]; Study 1): one
mice with lesion regression ([9]; Study 1): four of six
mice with any lesions at necropsy ([9]; Study 1, all mice had lesions at start of dosing): two of six
Stool quality (in words) ([4]; Study A, 50 mg/kg s.c. once per day): improved
Fibrosis (0–2) [4, 12]: 0*
Inflammation (0–3) [4, 12]: 0.69 ± 0.24
Lesion depth (0–2) [4, 12]: 0*
Total score [4, 12]: 0.69 ± 0.24
Ulceration (0–2) [4, 12]: 0*
total disease score, intestinal histology (in words) ([4]; Study C, oral, 10 mg/kg days 1–24 then 20 mg/kg): significantly reduced
measurements of tissue injury, colon histology (in words) ([4]; composite of two subcutaneous dosing studies, including Study A): effective in reducing several measurements of tissue injury
